Data from patent publication US20220175721A1, “TREATMENT FOR POLYCYSTIC OVARIAN SYNDROME (PCOS)” (Cadila Healthcare Limited, priority 2019, published 2022).
“And” between values parts separate entries of the source, which are not always exact repeats. Equal values may be shown once.

Assays:
Assay type in all cases: in vivo
[1] = system: letrozole-induced PCOS in female Zucker fa/fa rats; assay: Insulin tolerance test in letrozole-induced PCOS rats; conditions: (Ia) 4 mg/kg
Protocol: (§1) Female Zucker fa/fa rats (6-8 weeks) were issued from animal house of Zydus research Centre and quarantined for 7 weeks. At the age of 13-15 weeks all animals were administered Letrozole (1 mg/kg/2 ml) orally for 4 weeks to induce PCOS.
(§2) After 4 weeks of Letrozole, all animals with confirmed PCOS on basis of body weight and estrous cycle were randomized. […] Letrozole (1 mg/kg/2 mL) treatment was continued.
Continuing compound of formula (Ia) treatment for next two days, insulin tolerance test was performed after 6 h fast. […] Whole blood glucose was estimated using One-touch ultra-blood glucose meter. Blood glucose levels were then estimated at 0, 15, 30, 60 and 120 min corresponding to the insulin injection.

[2] = system: Letrozole-induced polycystic ovary syndrome (PCOS) in female Wistar rats; assay: Histological count of cystic follicles in letrozole-induced PCOS rats
Protocol: Sixty female Wistar rats (7-8 weeks) were issued from animal house of Zydus research Centre and quarantined for 4 weeks. At the age of 11-12 weeks all animals were randomized on body weight basis into two treatment groups, namely, vehicle (n=10) as non-PCOS or Letrozole (n=50) for PCOS. Formulated Letrozole (1 mg/kg/2 ml) were administered orally for 4 weeks to induce PCOS.
After 4 weeks of Letrozole, all animals with confirmed PCOS on basis of body weight and estrous cycle were randomized. After randomization, animals were assigned to either Vehicle control or Compound of Formula (Ia) (4 mg/kg, PO) treatment (n=8). Letrozole (1 mg/kg/2 mL) treatment was continued. Rest of the animals was sacrificed.
At the end of treatment, animals were sacrificed by cervical dislocation and ovaries were collected in 10% formalin. Ovaries were processed and embedded in paraffin and subjected to serial sectioning at 3-5 μm using rotary microtome, and sections were transferred on glass slides and stained with haematoxylin-eosin (H and E). The evaluation was done using light microscope and grading of the tissue pathological status was done. Total numbers of cystic follicles were counted on all sections throughout each ovary.

[3] = system: letrozole-induced PCOS in female Zucker fa/fa rats; assay: Ovaries weight in letrozole-induced PCOS rats; conditions: (Ia) 4 mg/kg; for Ovaries weight, % Change Vs Vehicle Control / Ovaries weight: after 4 weeks of oral treatment, metformin 200 mg/kg; for Ovaries weight: Mean±SEM, n=6
Protocol: Female Zucker fa/fa rats (6-8 weeks) were issued from animal house of Zydus research Centre and quarantined for 7 weeks. At the age of 13-15 weeks all animals were administered Letrozole (1 mg/kg/2 ml) orally for 4 weeks to induce PCOS. […] Letrozole (1 mg/kg/2 mL) treatment was continued. At the end of study, animals were sacrificed by cervical dislocation and ovaries were collected and weighed.

[4] = system: letrozole-induced PCOS in female Zucker fa/fa rats; assay: Serum LH, FSH and testosterone (ELISA) in letrozole-induced PCOS rats; conditions: (Ia) 4 mg/kg
Protocol: as §1, §2
After 4 weeks of compound of formula (Ia) treatment, Insulin was subcutaneously injected at 1.5 U/kg regular insulin and 2 g/kg glucose load was administered orally. Blood was collected 40 min following injection. Serum samples were analyzed for LH, FSH and testosterone using ELISA kit according to manufacturer's instructions.

[5] = repeated dose oral treatment, alone or with metformin 200 mg/kg
[6] = 4 mg/kg, individual animal mean of 6 sections
[7] = 4 mg/kg, individual animal, ovary sections 1-6
[8] = after 4 weeks of oral treatment, metformin 200 mg/kg
[9] = after 4 weeks of oral treatment, metformin 200 mg/kg, Mean±SEM, n=6

Question: Which results are given for `CCO[C@@H](Cc1ccc(OCCn2c(C)ccc2-c2ccc(SC)cc2)cc1)C(=O)O` [Compound of Formula (Ia), Saroglitazar Magnesium]?
Answer: AUC glucose, % Change Vs Vehicle Control ([1]; insulin tolerance test after 4 weeks of oral treatment, metformin 200 mg/kg): −37.4 ± 4.9%; AUC glucose (120 min*mg/dL) ([1]; insulin tolerance test after 4 weeks of oral treatment, metformin 200 mg/kg, Mean±SEM, n=6): 6819.0 ± 535.8 mg·min/dL; insulin sensitivity (in words) [1, 5]: significantly improved; cystic follicles, Mean of ovary sections, Animal-9 [2, 6]: 3.50; cystic follicles, Mean of ovary sections, Animal-10 [2, 6]: 3.50; cystic follicles, Mean of ovary sections, Animal-11 [2, 6]: 7.50; cystic follicles, Mean of ovary sections, Animal-12 [2, 6]: 3.83; cystic follicles, Mean of ovary sections, Animal-13 [2, 6]: 2.00; cystic follicles, Mean of ovary sections, Animal-14 [2, 6]: 4.67; cystic follicles, Mean of ovary sections, Animal-15 [2, 6]: 3.83; cystic follicles, Mean of ovary sections, Animal-16 [2, 6]: 9.50; cystic follicles per ovary section, Animal-9 [2, 7]: 4 (3×) and 3 (3×); cystic follicles per ovary section, Animal-10 [2, 7]: 3 (3×) and 4 (3×); cystic follicles per ovary section, Animal-11 [2, 7]: 7 (3×) and 8 (3×); cystic follicles per ovary section, Animal-12 [2, 7]: 4 and 3 (3×) and 5 (2×); cystic follicles per ovary section, Animal-13 [2, 7]: 2; cystic follicles per ovary section, Animal-14 [2, 7]: 5 (4×) and 4 (2×); cystic follicles per ovary section, Animal-15 [2, 7]: 4 and 3 (3×) and 5 (2×); cystic follicles per ovary section, Animal-16 [2, 7]: 11 (3×) and 10 and 2 and 12; Number of cystic follicle, % Change Vs Vehicle control ([2]; after 4 weeks of treatment, 4 mg/kg PO): −56.6 ± 7.9%; Number of cystic follicle ([2]; after 4 weeks of treatment, 4 mg/kg PO, Mean ± SEM, n=8): 4.79 ± 0.87; occurrence of cystic follicles (in words) ([2]; female Wistar rats, PCOS induced using Letrozole): significantly decreased; Ovaries weight, % Change Vs Vehicle Control [3]: −20.7 ± 3.5%; Ovaries weight [3]: 137.2 ± 6.1 mg; ovary weight (in words) [3, 5]: normalized; LH/FSH ratio, % Change Vs Vehicle Control [4, 8]: −17.1 ± 6.0%; Serum FSH, % Change Vs Vehicle Control [4, 8]: 32.3 ± 4.5%; Serum LH, % Change Vs Vehicle Control [4, 8]: 9.9 ± 7.4%; Serum testosterone, % Change Vs Vehicle Control [4, 8]: −61.8 ± 4.7%; LH/FSH ratio [4, 9]: 1.2 ± 0.1; Serum FSH [4, 9]: 103.1 ± 3.5 ng/mL; Serum LH [4, 9]: 121.4 ± 8.2 ng/mL; Serum testosterone [4, 9]: 1.6 ± 0.2 ng/mL; LH/FSH ratio (in words) ([4]; repeated dose oral treatment): decreased; serum FSH (in words) ([4]; repeated dose oral treatment): increased; serum testosterone (in words) [4, 5]: decreased

Question: With `CN(C)C(=N)N=C(N)N` [Metformin, reference compound] as the molecule, how does the “Ovaries weight, % Change Vs Vehicle Control” value [3] read?
Answer: −2.4 ± 4.1%

Question: And the “Ovaries weight” value [3]?
Answer: 169.8 ± 11.9 mg

Question: What about the “Serum FSH, % Change Vs Vehicle Control” value [4, 8] of the same molecule?
Answer: 4.4 ± 3.6%

Question: And the “Serum LH, % Change Vs Vehicle Control” value [4, 8]?
Answer: 0.81 ± 3.1%

Question: What about the “Serum testosterone, % Change Vs Vehicle Control” value [4, 8] of the same molecule?
Answer: −2.4 ± 4.1%

Question: And the “Serum FSH” value [4, 9]?
Answer: 85.3 ± 3.2 ng/mL

Question: And the “Serum LH” value [4, 9]?
Answer: 109.6 ± 9.2 ng/mL

Question: What about the “Serum testosterone” value [4, 9] of the same molecule?
Answer: 4.0 ± 0.9 ng/mL
